Here are results for one compound from US20250360130A1, “METHODS OF TREATING INDOLENT SYSTEMIC MASTOCYTOSIS” (Telios Pharma Inc., priority 2024, published 2025).

The test system of one assay is serum tryptase. Put plainly: Serum tryptase in ISM patients. The assay is classed as in vivo, human. The note with it: 100 mg or 150 mg BID. As to the method:
Also, blood samples were collected at the following timepoints: Cycle 1, Day 1: pre-dose (within 30 minutes prior to the morning dose), 0.5, 1.0, 2.0, 3.0, 4.0, and 6.0 hours (+15 minutes) post-morning dose. Cycle 1, Day 8: pre-dose (within 30 minutes prior to the morning dose) and 2 hours (+15 minutes) post-morning dose. Serum tryptase tests were conducted according to Example 14.
The measurement of serum tryptase can be followed to the procedure described in the literature (McMurray et al., Standardized indolent systemic mastocytosis evaluations across a health care system: implications for screening accuracy, Blood (2024) 144 (4): 408-419). Briefly, the procedure begins with proper patient preparation, avoiding recent physical activity or triggers that could cause mast cell activation. Venous blood samples, preferably drawn when the patient is not experiencing acute symptoms, are collected in serum separator tubes (SSTs) or plain red-top tubes, with approximately 5 mL of blood needed for analysis. After collection, the blood is allowed to clot at room temperature for 30-60 minutes before centrifugation for 10-15 minutes. The serum is then carefully separated from the cells and stored at 2-8° C. for short-term analysis or frozen at −20° C. or lower for long-term storage. […]

In assay [1] the test system is mast cell from an ISM patient. Put plainly: IgE-mediated calcium influx in ISM patient mast cells (FIG. 17). The note with it: presence of SCF, prior to antigen stimulation. The assay is classed as cell-based, human. As to the method:
Mast cell from an ISM patient was treated with Compound 128 at 50 mg, 75 mg, 100 mg, and 150 mg BID dose prior to antigen (Ag) stimulation. ISM 3-2 mast cell donor MC 1061-004 C1D8 D39. Experiments performed in the presence of SCF. […] Percent of Control (POC) based on Area-under-Curve above baseline (1st value).

The subject of a further assay is ISM-like mast cells. The assay is described as follows: Antigen-induced degranulation (CD63 and histamine) in ISM-like mast cells. The assay is classed as cell-based, human. The note with it: ISM-like (+SCF) mast cells, two hours treatment prior to stimulation. As to the method: (§1) Human mast cells were derived from bone marrow CD34+ cells from six healthy donors for up to eight weeks by culturing CD34+ cells in StemSpan SFEM II (Stem Cell Technologies) supplemented with stem cell factor (SCF; 100 ng/mL; R&D System), IL-6 (R&D Systems), IL-3 (R&D Systems) and 1% penicillin/streptomycin (P/S; Gibco) for the first 10 days and in StemSpan SFEM II supplemented with SCF and IL-6 and 1% P/S for the remaining time in culture. […] Supernatant was collected and histamine levels were measured using a Histamine ELISA kit (Eagle Biosciences). […] Percent of activated mast cells was calculated as number of activated mast cells over the total number of mast cells.
(§2) Human mast cells were differentiated from bone marrow CD34+ cells from six healthy donors, cultured and sensitized as set forth in Example 4. […] The median fluorescence intensity of phosphorylated BTK was measured. CD63 and histamine levels in these cells were measured and percent activated mast cells were calculated as set forth in Example 4. The percent of stimulated control for pBTK, activated mast cells (CD63+) and histamine levels was calculated. […]

The target in a further assay is BTK (Homo sapiens, UniProt Q06187). The assay is described as follows: Antigen-induced BTK phosphorylation in ISM-like mast cells. The assay is classed as cell-based. The arrangement: Human mast cells were differentiated from bone marrow CD34+ cells from six healthy donors; endogenous in cells; host or cells: human mast cells differentiated from bone marrow CD34+ cells of healthy donors, cultured with SCF. The note with it: ISM-like (+SCF) mast cells, two hours treatment prior to stimulation. As to the method:
as §1, §2

The subject of the next assay is human mast cells. The assay is described as follows: ISM-like mast cell chemotaxis towards conditioned media (Transwell). The assay is classed as cell-based. The note with it: conditioned media from ISM-like mast cells treated two hours. As to the method: Human mast cells were differentiated from bone marrow CD34+ cells from four healthy donors as set forth in Example 4. Cells were used to produce conditioned media in ISM-like conditions. Conditioned media was the supernatant collected from mast cells cultured with stem cell factor (100 ng/ml), sensitized with NP-IgE (0.1 μg/mL) for 18 hours, treated with Compound 128 for two hours, and stimulated with NP-BSA (antigen; 0.1 μg/mL) for four hours. Migration of mast cells in the top chamber on Transwell […] inserts (Corning) towards the antigen-stimulated conditioned media in the bottom chamber was quantified after four hours using the CellTiter-Glo™ Luminescent Cell Viability Assay Kit (Promega). The amount of luminescence is correlated with live cell numbers. Fold change over the non-activated control was calculated.

The next assay relates to mast cells. Put plainly: Monomeric IgE-mediated degranulation and cytokine production in mast cells. The assay is classed as cell-based, human. The note with it: mast cells from a healthy donor, 2 hours treatment, myeloma IgE with SCF. As to the method: Mast cells from a healthy donor were starved of SCF for 18 hours and treated with Compound 128 for 2 hours. Mast cells were stimulated with SCF (100 ng/ml) or myeloma IgE (3 μg/ml; Millipore Sigma) alone or in combination for 30 minutes (CD63 and Histamine) or 24 hours (cytokine production), respectively. For the histamine and cytokine test, supernatant was collected and the levels of histamine and cytokines were measured as set forth in Example 4 for histamine and Example 7 for cytokines. For the CD63 test, the cells were stained for CD63, data was acquired on a flow cytometer and percent activated mast cells calculated as set forth in Example 4. […] The monomeric IgE contribution to degranulation and cytokine production is inhibited by Compound 128.

Sequence of BTK (Q06187 whole entry): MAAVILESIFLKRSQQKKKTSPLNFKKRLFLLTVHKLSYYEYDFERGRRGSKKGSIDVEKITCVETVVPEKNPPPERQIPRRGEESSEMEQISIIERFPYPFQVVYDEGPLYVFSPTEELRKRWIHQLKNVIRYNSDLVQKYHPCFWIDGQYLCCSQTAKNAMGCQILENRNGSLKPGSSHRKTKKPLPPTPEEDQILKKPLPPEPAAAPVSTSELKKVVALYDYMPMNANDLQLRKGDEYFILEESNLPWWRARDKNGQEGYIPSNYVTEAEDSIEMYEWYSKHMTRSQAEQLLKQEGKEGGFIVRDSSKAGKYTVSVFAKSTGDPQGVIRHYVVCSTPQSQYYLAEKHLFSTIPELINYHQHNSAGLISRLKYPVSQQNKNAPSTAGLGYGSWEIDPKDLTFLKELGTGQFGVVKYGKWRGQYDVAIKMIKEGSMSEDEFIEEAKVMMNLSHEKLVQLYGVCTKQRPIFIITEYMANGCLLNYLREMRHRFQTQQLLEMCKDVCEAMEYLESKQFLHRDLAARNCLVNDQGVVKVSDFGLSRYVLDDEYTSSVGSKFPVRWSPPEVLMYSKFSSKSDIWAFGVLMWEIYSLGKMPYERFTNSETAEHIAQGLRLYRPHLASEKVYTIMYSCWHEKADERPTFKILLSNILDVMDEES

`C=CC(=O)N1CCC(F)(CNc2ncnc(N)c2-c2ccc(Oc3ccccc3)cc2)CC1` [Compound 128, 1-(4-(((6-amino-5-(4-phenoxyphenyl)pyrimidin-4-yl)amino)methyl)-4-fluoropiperidin-1-yl)prop-2-en-1-one]: the “reduction in serum tryptase levels” value with serum tryptase is recorded as “effective in reducing serum tryptase levels”. For the same compound, the IgE-mediated calcium influx result in assay [1] is listed as “potently inhibits”. Moreover, the “IgE-mediated degranulation (CD63 and histamine)” value in the assay on ISM-like mast cells is given as “potently inhibits”. In addition, the “IgE-mediated BTK phosphorylation” value at BTK was “potently inhibits”. Moreover, in the assay on human mast cells, the “chemoattractant activity of mast cells (chemotaxis, fold change over non-activated control)” value is reported as “inhibited”. For the same compound, in the assay on mast cells, the “monomeric IgE contribution to degranulation and cytokine production” value was “inhibited”.
